The values that follow come from US9926369B2, “Methods for treating hepatocellular cancer by administering an anti-Ang-2 antibody” (Regeneron Pharmaceuticals, Inc., priority 2009, dated 2018).

The target in assay [1] is T1, Monomeric hAng-2FD (Homo sapiens, UniProt O15123).
T1 sequence (O15123 282-496 limits assumed): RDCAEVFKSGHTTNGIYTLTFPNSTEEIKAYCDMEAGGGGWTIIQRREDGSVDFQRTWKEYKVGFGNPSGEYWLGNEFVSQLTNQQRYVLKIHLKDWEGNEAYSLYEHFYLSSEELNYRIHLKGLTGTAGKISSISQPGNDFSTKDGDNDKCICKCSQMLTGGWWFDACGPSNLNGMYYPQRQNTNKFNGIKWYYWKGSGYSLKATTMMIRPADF
Put plainly: SPR binding to monomeric hAng-2FD (Table 8). The method, then:
Equilibrium dissociation constants (KD values) for the binding of selected purified Ang-2 antibodies to dimeric fibrinogen-like domain of human (SEQ ID NO: 519), mouse (Mus musculus; SEQ ID NO: 520) and monkey (Macca fascicularis; SEQ ID NO: 521) Ang-2 (Ang-2FD) conjugated to human IgG1 (SEQ ID NO:528) were determined by surface kinetics using a real-time biosensor surface plasmon resonance assay. Antibody was captured on a goat anti-mouse IgG polyclonal antibody surface, a goat anti-human κ polyclonal antibody (Southern Biotech, Birmingham, Ala.) surface or a goat anti-human IgG polyclonal antibody (Jackson Immuno Research Lab, West Grove, Pa.) surface created through direct amine coupling to a BIACORE™ CM5 sensor chip to form a captured antibody surface. Varying concentrations (ranging from 50 nM to 6.25 nM) of protein were injected at 100 μl/min over captured antibody surface for 90 seconds. Antigen-antibody binding and dissociation were monitored in real time at room temperature. Kinetic analysis was performed to calculate KD and half-life of antigen/antibody complex dissociation.
In yet another experiment, KD values for selected purified antibodies that bind to wild-type human Ang-2 (hAng-2-WT; SEQ ID NO: 518) and the fibrinogen-like domain of human Ang2 (hAng-2FD) were determined (as described above).
A general note: In SPR one partner is held on a chip, and binding of the other changes the refractive index at the surface.

Assay [2] addresses Dimeric Monkey Ang-2FD-hFc. Put plainly: Cross-species SPR binding at 25° C. or 37° C., monkey Ang-2FD-hFc. As for the experimental part:
Additional binding experiments were conducted using selected anti-Ang-2 antibodies at two different temperatures to further assess cross-species affinity. Each selected antibody or control construct was captured at a flow rate of 40 μL/min for 1 minute on a goat anti-human kappa polyclonal antibody surface created through direct chemical coupling to a BIACORE™ chip to form a captured antibody surface. Human, monkey and mouse Ang-2FD-Fc at a concentration of 25 nM or 0.78 nM was injected over the captured antibody surface at a flowrate of 60 μL/min for 3 minutes, and antigen-antibody dissociation was monitored in real time for 20 minutes at either 25° C. or 37° C.

Assay [3] has as its system MMT tumors. Description: MMT tumor growth in SCID mice. The format is in vivo. To be noted: H1H685P 12.5 mg/kg, VEGF Trap 5 mg/kg. The method, then: To provide additional evidence of combination efficacy, the effect of the H1H685P+VEGF Trap combination on the growth of MMT tumors was assessed. 0.5×10^6 MMT cells were implanted subcutaneously into the right hind flank of 6-8 week-old female SCID mice. […] The Fc and H1H685P groups were given 3 doses over 9 days. The VEGF Trap and combination groups were given 4 doses over 12 days. Tumor volumes were measured twice per week over the course of the experiment and tumor weights were measured upon excision of tumors at the end of the experiment (due to their large size, tumors from the Fc and H1H685P groups were collected 3 days before tumors from the VEGF Trap and combination groups). Averages (mean+/−standard deviation) of tumor growth from the beginning of treatment and of tumor weight were calculated for each group. Percent decrease of tumor weight and growth are calculated from comparison to the Fc control group.

The test system of assay [4] is retinal superficial vasculature. Put plainly: Retinal vascularization in wild-type mice. The format is in vivo. The note with it: 12.5 mg/kg subcutaneous at P2, retina at P5. The method, then:
In one set of experiments wild-type mice were used. In another set, mice expressing a human Ang-2 in place of the wild-type mouse Ang-2 (designated “hu-Ang-2 mice”) were used. The mice at two days of age (P2) were injected subcutaneously with either control Fc or with selected anti-Ang-2 antibodies at a dose of 12.5 mg/kg. Three days later (at P5), pups were euthanized, and eyeballs were enucleated and fixed in 4% PFA for 30 minutes. Retinas were dissected, stained with Griffonia simplicifolia lectin-1 for 3 hours or overnight at 4° C. to visualize the vasculature, and flat-mounted on microscope slides. Images were taken using a Nikon Eclipse 80i microscope camera and analyzed using Adobe Photoshop CS3, Fovea 4.0, and Scion 1.63 software.
Areas of the retina covered with superficial vasculature were measured and used as a readout of antibody activity. The reduction in the size of the vascular areas in mice treated with antibody compared to Fc-treated controls is presented in Table 34. The percent reduction in vascular area reflects the anti-angiogenic potency of the antibody. (N/D=not determined)

In assay [5] the test system is Ang-1-mediated Tie-2 phosphorylation in EA.hy926 cells. Put plainly: Inhibition of Ang-1-mediated Tie-2 phosphorylation in EA.hy926 cells. It counts as cell-based, human. The note with it: up to 400 nM. The method, then:
EA.hy926 cells (Edgell et al., Proc. Natl. Acad. Sci. USA 80:3734-3737 (1983)) were plated at 5×10^6 cells per 10 cm dish in 10 ml DMEM with 10% FBS, HAT, L-glutamine and penicillin/streptomycin. After 24 hours, cells were serum-starved for 1 hour in 10 ml DMEM+1 mg/ml BSA. Cells were then stimulated for 10 minutes with 500 ng/ml of recombinant human Ang-1 (R&D Systems) in the presence of either an irrelevant isotype control antibody (“9E10”) at 400 nM or the anti-Ang-2 antibody H1H685P, or control agents (Control I, Control II, Control IV, or Control V) at concentrations ranging from 10 to 400 nM.
Following incubation, cells were lysed and Tie-2 was immunoprecipitated as described by Daly et al., Proc. Natl. Acad. Sci. USA 103:15491-15496 (2006). Immune complexes were collected by incubation with protein A/G beads (Santa Cruz Biotechnology, Santa Cruz, Calif.) for 60 min. Beads were washed with cold lysis buffer and bound proteins were eluted by heating in SDS sample buffer. Samples were then subjected to Western blot analysis with monoclonal antibodies against Tie-2 or phosphotyrosine (clone 4G10, Millipore, Billerica, Mass.).
Signals were detected using HRP-conjugated secondary antibodies and ECL reagents (GE Healthcare, Piscataway, N.J.). X-ray films were scanned and the phospho-Tie-2 and Tie-2 signals were quantified using ImageJ software. […]

Sequence of Dimeric Monkey Ang-2FD-hFc (as listed by the source): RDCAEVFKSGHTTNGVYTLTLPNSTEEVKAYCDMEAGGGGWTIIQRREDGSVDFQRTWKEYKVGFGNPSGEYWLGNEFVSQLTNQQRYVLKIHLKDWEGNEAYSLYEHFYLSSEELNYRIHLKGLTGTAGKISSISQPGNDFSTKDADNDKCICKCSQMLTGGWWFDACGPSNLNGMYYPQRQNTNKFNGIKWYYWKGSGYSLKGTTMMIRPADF

As usually defined, the Kd is the concentration at which binding is half-saturated. “H1H685P: human anti-Ang-2 antibody, HCVR/LCVR SEQ ID NOs 18/20; also referred to as mAb1 [Antibody H1H685P]” registered a Kd in assay [1] of 0.578 nM. This substance also displayed a Kd in assay [2] (25° C.) of 0.022 nM. The substance further displayed a Kd in assay [2] (37° C.) of 0.0721 nM. In assay [3], the “% Decrease in Tumor Growth” value worked out at 15%, the “% Decrease in Tumor Weight” value is given as 11%, the “Avg Tumor Growth” value amounted to 1135 ± 306 mm^3 and the “Avg Tumor Weight” value is listed as 1.409 ± 0.314 g. Moreover, the “% Reduction in Vascular Area Relative to Fc Control, Wild-Type Mice” value in assay [4] is 39.7%. Also, the “Inhibitory effect on Ang-1-induced Tie-2 phosphorylation (in words)” value in assay [5] is reported as “no significant inhibitory effect”.
